Test results from patent US9085559B2, “Triazine-aryl-bis-indoles and process for preparation thereof” (COUNCIL OF SCIENTIFIC & INDUSTRIAL RESEARCH, priority 2010, dated 2015).
Values after ≈ are worked out from the molar mass of the structure shown. Values joined by “and” are separate entries in the source; they are usually repeats but may differ in a detail not shown here. Identical values can stand only once. Like-named read-outs stand apart in the source and are kept apart here.

Key:
[1] = test system: Intercellular Adhesion Molecule type 1 (ICAM-1); experiment: Cell-ELISA, TNF-α induced ICAM-1 expression on HUVECs; type: cell-based; conditions: Homo sapiens, HUVEC; HUVECs pretreated 2 hours, TNF-α 16 hours
Experimental: (§1) FIG. 4. Inhibition of TNF-α induced expression Intercellular Adhesion Molecule type 1 (ICAM-1) and Vascular Cell Adhesion Molecule type 1 (VCAM-1) on HUVECs by IICT-TA67. To determine the effect of IICT-TA67 on TNF-α induced cell adhesion molecules such as ICAM-1 and VCAM-1, HUVECs were pretreated with various concentrations of IICT-TA67 for 2 hours followed by induction with TNF-α for 16 hours. The cell surface expression of cell adhesion molecules was measured by ELISA.
(§2) Cell-ELISA was used for measuring the expression of ICAM-1 on surface of endothelial cells. Endothelial cells were incubated with or without IICT-TA67 at desired concentrations for the required period, followed by treatment with TNF-α (10 ng/ml) for 16 h for ICAM-1 and VCAM-1 expression. The cells were fixed with 1.0% glutaraldehyde. Non-specific binding of antibody was blocked by using skimmed milk (3.0% in PBS). Cells were incubated overnight at 4° C. with anti-ICAM-1 mAb anti-VCAM-1 antibody, diluted in blocking buffer, the cells were further washed with PBS and incubated with peroxidase-conjugated goat anti-mouse secondary Abs. […] Reaction was stopped by the addition of 2 N sulfuric acid and absorbance at 490 nm was measured using microplate reader (Spectramax 190, Molecular Devices, USA).

[2] = test system: Vascular Cell Adhesion Molecule type 1 (VCAM-1); experiment: Cell-ELISA, TNF-α induced VCAM-1 expression on HUVECs; type: cell-based; conditions: Homo sapiens, HUVEC; HUVECs pretreated 2 hours, TNF-α 16 hours
Experimental: as §1, §2

[3] = Pharmacokinetic study, oral and i.v. route; type: in vivo, swiss mice; conditions: mice; for half-life: read-out: T ½ (converted)
Experimental: FIG. 6. Pharmacokinetics of IICT-TA67 through oral route. FIG. 7. Pharmacokinetics of IICT-TA67 through intravenous (i.v) route in mice. IICT-TA67 (20 mg/kg) was administered orally (or 10 mg/kg by i.v. route) as a fine suspension in 1% Gum acacia. Blood samples were drawn from retro-orbital plexus at designated times in pre-labeled heparinised tubes and centrifuged (3500 rpm×10 minutes) to obtain the plasma. Blood samples were collected at 0, 5, 15 and 30 min, and 1, 2, 4, 6, 8, 16 and 24 hrs post-administration after oral/iv route. HPLC determinations were done on Shimadzu chromatograph (Model: LC-10 Atvp equipped with a diode array detector). The Molecule ICT-TA67 was determined at 276 nm using RP-18 column (5 μm×25 cm). Mobile phase consisted of acetonitrile: water (55:45) with a flow rate of 1.0 ml/min.
Animals. Healthy swiss mice of both the sexes (25-30) were used. The animals were kept (3/cage) under controlled conditions (temp 26±2° C.; relative humidity 50±5%; 12 h light/dark cycle) and maintained on pelleted rodent diet (Ashirwad Industries Ltd. Chandigarh, India). Water was provided ad libitum. Institutional Animal Ethics committee approved the animal experiments. Animals were fasted for 16 hours before use.
Step 1: Dosing: IICT-TA67 (20 mg/kg) was administered orally (or 10 mg/kg by i.v.route) as a fine suspension in 1% Gum acacia. Blood samples were drawn from retro-orbital plexus at designated times in pre-labeled heparinised tubes and centrifuged (3500 rpm×10 minutes) to obtain the plasma. Blood samples were collected at 0, 5, 15 and 30 min, and 1, 2, 4, 6, 8, 16 and 24 hrs post-administration after oral/iv route.
Step 2: HPLC determinations: Aliquots of plasma were mixed with acetonitrile (1:2), vortexed for two minutes (2500 rpm) and centrifuge at 5000 rpm for 10 min. The organic layer was collected and evaporated to dryness using solvent evaporator (Model: SPD 111V, Thermo Electron Corporation, MA). The dried samples were reconstituted in mobile phase for HPLC analysis. In a similar manner samples were also prepared from aliquots of plasma collected from untreated animals which were spiked with molecule 67 (0.25 μg-10 μg/ml). […] Reproducibility of the method was defined by both intra-, and inter-day variance. The retention time of Mol. 67 was 10.688 min, at which no other interfering peak was observed. The lower limit of detection (LOD) was 11 ng/ml; limit of quantitation (LOQ) was 32 ng/ml; recovery was 90±2%.
HPLC determinations were done on Shimadzu chromatograph (Model: LC-10 Atvp equipped with a diode array detector). Molecule 67 was determined at 276 nm using RP-18 column (5 μm×25 cm). Mobile phase consisted of acetonitrile: water (55:45) with a flow rate of 1.0 ml/min.
Step 3: Calculating Bioavailability indices: A concentration-time curve for Molecule 67 was established and pharmacokinetic parameters AUC, Cmax, and tmax were determined by a non-compartmental analysis using TOPFIT software package. Absolute bioavailability was determined using the following formula: AUCoral×doseiv/AUCiv×Doseoral.

[4] = both sexes, Swiss, mouse, plasma, iv, 10 mg/kg
[5] = both sexes, Swiss, mouse, plasma, oral, 20 mg/kg

COc1ccc(C(c2[nH]c3ccccc3c2CC(=O)O)c2[nH]c3ccccc3c2CC(=O)O)cc1Oc1nc(NC2CC2)nc(NC2CC2)n1 [Compound 7, 2,2′-[2,2′-3-(4,6-bis-cyclopropylamino)-1,3,5-triazin-2-yl-oxy-4-methoxy-phenyl]-methylene-bis-(1H-indole-3,3-diyl)-diacetic acid]
IC50 [1]: 10.6 µg/mL (≈ 15.7 µM)
IC50 [2]: 16.6 µg/mL (≈ 24.6 µM)
Tmax [3, 4]: 0.167 h
half-life ([3]; both sexes, Swiss, mouse, plasma, iv, 10 mg/kg, i.v., 10 mg/kg): 55.8 min
AUC [3, 4]: 358 ng·h/mL
Cmax [3, 4]: 332 ng/mL
clearance [3, 4]: 466 mL/min and 466 mL/min/kg
AUC(0-t) ([3]; both sexes, Swiss, mouse, plasma, iv, 10 mg/kg (Table 2)): 358 ng·h/mL
Vd ([3]; both sexes, Swiss, mouse, plasma, iv, i.v., 10 mg/kg, read-out: Vd): 37.5 L and 37.5 L/kg
bioavailability ([3]; both sexes, Swiss, mouse, plasma, oral, AUCoral×doseiv/AUCiv×Doseoral, read-out: Absolute bioavailability (F)): 70.3%
Tmax ([3]; both sexes, Swiss, mouse, plasma, po, 20 mg/kg): 3 h
Tmax ([3]; both sexes, Swiss, mouse, plasma, po, 20 mg/kg, 20 mg/kg (Table 2)): 2 h
half-life ([3]; both sexes, Swiss, mouse, plasma, po, 20 mg/kg, oral, 20 mg/kg): 256 min
AUC [3, 5]: 503 ng·h/mL
Cmax [3, 5]: 107 ng/mL
AUC(0-t) ([3]; both sexes, Swiss, mouse, plasma, oral, 20 mg/kg (Table 2)): 503 ng·h/mL
T ½ ([3]; i.v., 10 mg/kg, listed as IICT-TA67, 10 mg/kg): 1.5 h
Vd ([3]; oral, 20 mg/kg, listed as TA-67, 20 mg/kg): 474 L
